The source of these data is patent US11414429B2, “Compound or pharmaceutically acceptable salt thereof” (RIKEN, priority 2016, dated 2022).

Molecules are shown by their SMILES. pIC50: −log10 of the molar value. Where two headings read alike, the source gives them in different places.

A word on the pIC50: it is the IC50 on a negative log10 scale, so that one unit is a factor of ten.

Assay [1] concerns the target T1, tankyrase 1 (TNKS 1) (Homo sapiens, UniProt O95271).
T1 construct: 1,024-1,327aa; made in house; host or cells: cell-free protein synthesis system
Briefly: Tankyrase inhibitory activity test (ELISA, self-polyADP ribosylation), tankyrase 1. The format is biochemical. An outline of the steps:
(§1)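 Flag-tagged TNKS1 (1,024-1,327aa, SAM+PARP) and TNKS2 (613-1,116aa, ANK5+SAM+PARP) were made cell-free and captured overnight at 4 °C on anti-FLAG M2 plates. After 10 min compound preincubation in Tris pH 8.0/MgCl2/DTT buffer, NAD (225 μM) plus biotin-NAD (25 μM) solution was added for 45 min at 30 °C. Auto-PARylation was read by streptavidin-HRP chemiluminescence, giving IC50 from residual activity.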

Assay [2] concerns the target T2, tankyrase 2 (TNKS 2) (Homo sapiens, UniProt Q9H2K2).
T2 construct: 613-1, 116aa; made in house; host or cells: cell-free protein synthesis system
Briefly: Tankyrase inhibitory activity test (ELISA, self-polyADP ribosylation), tankyrase 2. The format is biochemical. Put shortly: as §1
(An ELISA detects its analyte on a solid surface through an enzyme-linked reagent.)

Assay [3] concerns human colorectal cancer cell line, COLO-320DM. Briefly: Cell proliferation inhibitory activity test (Celltiter-Glo Luminescent Cell Viability Assay). Format: cell-based. To be noted: COLO-320DM cells, 96 hours, class symbols, read-out: COLO-320 DM (cell proliferation inhibitory activity, GI50 value). An outline of the steps: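 Cells grown in RPMI-1640 with 10% FBS and 2 mM glutamine, seeded overnight, then exposed to compound (1% DMSO final) for 96 h at 37° C., 5% CO2. Viability read by ATP luminescence; GI50 is the concentration reducing cell growth to 50% of DMSO control.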
On the technique in general: In ATP-based viability assays light output follows the ATP content of the culture.

The mark [4] stands for this setting: ELISA, self-polyADP ribosylation, class symbols, read-out: TNKS1 (inhibitory activity against tankyrase 1, IC50 value).
[5] abbreviates: ELISA, self-polyADP ribosylation, class symbols, read-out: TNKS2 (inhibitory activity against tankyrase 2, IC50 value).

T2 sequence (Q9H2K2 613-1166): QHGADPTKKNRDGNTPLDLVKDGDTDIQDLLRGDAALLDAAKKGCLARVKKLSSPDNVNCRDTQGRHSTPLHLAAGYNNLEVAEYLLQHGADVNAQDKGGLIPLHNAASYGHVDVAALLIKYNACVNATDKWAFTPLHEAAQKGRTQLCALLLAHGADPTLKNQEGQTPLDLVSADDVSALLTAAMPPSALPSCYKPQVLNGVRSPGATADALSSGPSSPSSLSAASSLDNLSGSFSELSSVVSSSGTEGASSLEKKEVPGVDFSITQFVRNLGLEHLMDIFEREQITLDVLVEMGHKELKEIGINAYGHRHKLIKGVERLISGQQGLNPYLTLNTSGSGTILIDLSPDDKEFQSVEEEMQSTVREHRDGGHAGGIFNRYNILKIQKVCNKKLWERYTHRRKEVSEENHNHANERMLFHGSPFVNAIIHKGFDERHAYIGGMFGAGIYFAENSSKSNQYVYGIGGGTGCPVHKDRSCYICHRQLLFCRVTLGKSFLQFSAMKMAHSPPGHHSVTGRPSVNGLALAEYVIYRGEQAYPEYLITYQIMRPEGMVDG
T1 sequence (O95271 1024-1327): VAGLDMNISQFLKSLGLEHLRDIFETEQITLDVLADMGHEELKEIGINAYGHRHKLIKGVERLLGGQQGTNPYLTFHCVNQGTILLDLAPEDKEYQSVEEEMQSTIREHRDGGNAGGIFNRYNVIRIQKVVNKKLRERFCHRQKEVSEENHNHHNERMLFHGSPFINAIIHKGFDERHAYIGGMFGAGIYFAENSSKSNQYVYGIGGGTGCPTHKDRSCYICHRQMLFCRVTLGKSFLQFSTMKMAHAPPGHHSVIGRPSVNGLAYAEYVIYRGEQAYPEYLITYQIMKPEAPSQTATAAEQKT

On to `CN1CCCc2c1nc(N1CCC3(CC1)C(=O)N(C)c1cc(N4CCC(C(=O)O)CC4)cc(F)c13)[nH]c2=O` [Example 422, 1-[4-fluoro-1-methyl-1′-(8-methyl-4-oxo-3,4,5,6,7,8-hexahydro-pyrido[2,3-d]pyrimi-din-2-yl)-2-oxospiro [indoline-3,4′-piperidin]-6-yl]piperidine-4-carboxylic acid], for which the pIC50 in assay [1] (setting [4]) and in assay [2] (setting [5]) was > 7.70 throughout. The GI50 in assay [3] is < 100 nM.
For the compound `CN1CCCc2c1nc(N1CCC3(CC1)C(=O)N(C)c1cc(N4CC(C(=O)O)C4)cc(F)c13)[nH]c2=O` [Example 423, 1-[4-fluoro-1-methyl-1′-(8-methyl-4-oxo-3,4,5,6,7,8-hexahydro-pyrido[2,3-d]pyrimi-din-2-yl)-2-oxospiro[in-doline-3,4′-piperidin]-6-yl]azetidine-3-carboxylic acid], the pIC50 in assay [1] (setting [4]) and in assay [2] (setting [5]) was > 7.70 throughout. The GI50 in assay [3] is < 100 nM.
With `CN1CCCc2c1nc(N1CCC3(CC1)C(=O)N(CC(N)=O)c1cc(F)cc(F)c13)[nH]c2=O` [Example 424, 2-[4,6-difluoro-1′-(8-methyl-4-oxo-3,4,5,6,7,8-hexahydropyrido [2,3-d]pyrimidin-2-yl)-2-oxospiro[indoline-3,4′-piperidin]-1(2H)-yl]acetamide], the pIC50 in assay [1] (setting [4]) and in assay [2] (setting [5]) was > 7.70 each time. Further, the GI50 in assay [3] is 100 to 600 nM.
On to `CN1CCCc2c1nc(N1CCC3(CC1)C(=O)N(C)c1c(OC4CC5CCC(C4)N5C)ccc(Cl)c13)[nH]c2=O` (stereo not drawn) [Example 425, 4-chloro-1′-(4-hydroxy-8-methyl-6,7-dihydro-5H-pyrido[2,3-d]pyrimidin-2-yl)-1-methyl-7-[(8-methyl-8-azabicyclo [3.2.1]octan-3-yl)oxy] spiro[indole-3,4′-piperidin]-2-one], for which the pIC50 in assay [1] (setting [4]) and in assay [2] (setting [5]) was > 7.70 in each case. In addition, the GI50 in assay [3] was 100 to 600 nM.
`CN1C(=O)C2(CCN(c3nc4c(c(=O)[nH]3)CCCN4)CC2)c2c(F)ccc(OCC(C)(C)O)c21` [Example 426, 4-fluoro-7-(2-hydroxy-2-methylpropoxy)-1′-(4-hydroxy-5,6,7,8-tetrahydropyrido[2,3-d]pyrimidin-2-yl)-1-methyl-spiro[indole-3,4′-piperidin]-2-one]: the pIC50 in assay [1] (setting [4]) and in assay [2] (setting [5]) was > 7.70 in each case. The GI50 in assay [3] fell in the range of 100 to 600 nM.
Turning to `CN1CCCc2c1nc(N1CCC3(CC1)C(=O)N(C)c1cc(OCC(=O)NS(C)(=O)=O)cc(F)c13)[nH]c2=O` [Example 427, 2-{[4-fluoro-1-methyl-1′-(8-methyl-4-oxo-3,4,5,6,7,8-hexahydro-pyrido[2,3-d]pyrimi-din-2-yl)-2-oxospiro [indoline-3,4′-piperidin]-6-yl]oxy}-N-(methyl-sulfonyl)acetamide], the pIC50 in assay [1] (setting [4]) and in assay [2] (setting [5]) was > 7.70 each time. Further, the GI50 in assay [3] lay in the range of 600 to 1000 nM.
Take `CN1CCCc2c1nc(N1CCC3(CC1)C(=O)N(C)c1cc(OCCNS(=O)(=O)N(C)C)cc(F)c13)[nH]c2=O` [Example 428, 6-[2-(N,N-dimethyl-sulfamoyl)amino-ethoxy]-4-fluoro-1-methyl-1′-(8-methyl-4-oxo-3,4,5,6,7,8-hexahydro-pyrido[2,3-d]pyrimi-din-2-yl)spiro [indoline-3,4′-piperidin]-2(1 H)-one]: the pIC50 in assay [1] (setting [4]) and in assay [2] (setting [5]) was > 7.70 throughout. Further, the GI50 in assay [3] is 100 to 600 nM.
Consider `CN1CCCc2c1nc(N1CCC3(CC1)C(=O)N(CCO)c1cc(OCC#N)cc(F)c13)[nH]c2=O` [Example 429, {[4-fluoro-1-(2-hydroxy-ethyl)-1′-(8-methyl-4-oxo-3,4,5,6,7,8-hexahydro-pyrido[2,3-d]pyrimidin-2-yl)-2-oxospiro[indoline-3,4′-piperidin]-6-yl]oxy} acetonitrile], for which the pIC50 in assay [1] (setting [4]) and in assay [2] (setting [5]) was > 7.70 throughout. Further, in assay [3], the GI50 lay in the range of 100 to 600 nM.
Regarding `CN1CCCc2c1nc(N1CCC3(CC1)C(=O)N(CC(=N)N)c1cc(F)cc(F)c13)[nH]c2=O` [Example 430, [4,6-difluoro-1′-(8-methyl-4-oxo-3,4,5,6,7,8-hexahydropyrido[2,3-d]pyrimidin-2-yl)-2-oxospiro[indoline-3,4′-piperidine]-1(2H)-yl]ethanimidamide], the pIC50 in assay [1] (setting [4]) and in assay [2] (setting [5]) was > 7.70 throughout. Further, the GI50 in assay [3] was in the range of 600 to 1000 nM.
For `CN1CCCc2c1nc(N1CCC3(CC1)C(=O)N(C)c1cc(C(=O)O)cc(F)c13)[nH]c2=O` [Example 431, 4-fluoro-1-methyl-1′-(8-methyl-4-oxo-3,4,5,6,7,8-hexahydro-pyrido[2,3-d]primi-din-2-yl)-2-oxospiro[indoline-3,4′-piperidine]-6-carboxylic acid], the pIC50 in assay [1] (setting [4]) and in assay [2] (setting [5]) was > 7.70 in each case. Besides, the GI50 in assay [3] was 600 to 1000 nM.
Take `CN1CCCc2c1nc(N1CCC3(CC1)C(=O)N(C)c1cc(OCCNS(C)(=O)=O)cc(F)c13)[nH]c2=O` [Example 432, N-(2-{[4-fluoro-1-methyl-1′-(8-methyl-4-oxo-3,4,5,6,7,8-hexahy-dropyrido[2,3-d]py-rimidin-2-yl)-2-oxospiro [indoline-3,4′-piperi-din]-6-yl]oxy}ethyl) methanesulfonamide]: the pIC50 in assay [1] (setting [4]) and in assay [2] (setting [5]) was 6.70 to 7.70 throughout. Further, the GI50 in assay [3] lay within 100 to 600 nM.
As to `CN1CCCc2c1nc(N1CCC3(CC1)OC(=O)c1cc(N4CCN(C(C)(C)C)CC4)cc(F)c13)[nH]c2=O` [Example 434, 6-(4-tert-butylpipera-zin-1-yl)-4-fluoro-1′-(4-hydroxy-8-methyl-6,7-dihydro-5H-pyrido [2,3-d]pyrimidin-2-yl) spiro[2,3-benzofuran-3,4′-piperidine]-1-one], the pIC50 in assay [1] (setting [4]) and in assay [2] (setting [5]) was > 7.70 in each case. In addition, in assay [3], the GI50 lay within 600 to 1000 nM.
With `N#CCOc1cc(F)c2c(c1)N(CC(F)(F)F)C(=O)C21CCN(c2nc3c(c(=O)[nH]2)CCCN3)CC1` [Example 435, 2-[4-fluoro-2-oxo-1′-(4-oxo-3,4,5,6,7-hex-ahydropyrido[2,3-d]pyrimidin-2-yl)-1-(2,2,2-trifluoroethyl)spiro [indole-3,4′-piperidine]-6-yl]oxyacetonitrile], the negative-log IC50 (pIC50) in assay [1] (setting [4]) and in assay [2] (setting [5]) was > 7.70 in each case. For the same compound, the GI50 in assay [3] lay within 100 to 600 nM.
Take `CN1CCCc2c1nc(N1CCC3(CC1)C(=O)N(C)c1c(OCCNC(C)(C)C)ccc(F)c13)[nH]c2=O` [Example 437, 7-[2-(tert-butylamino)ethoxy]-4-fluoro-1′-(4-hydroxy-8-methyl-6,7-dihydro-5H-pyrido [2,3-d]pyrimidin-2-yl)-1-methylspiro[indole-3,4′-piperidine]-2-one]: the pIC50 in assay [1] (setting [4]) and in assay [2] (setting [5]) was 6.70 to 7.70 in each case. Further, the GI50 in assay [3] lay within 100 to 600 nM.
As to `CN1C(=O)C2(CCN(c3nc4c(c(=O)[nH]3)CCCN4)CC2)c2c(Cl)ccc(OC3CCOC3)c21` (stereo not drawn) [Example 438, 4-chloro-1′-(4-oxo-3,4,5,6,7,8-hexahydro-pyrido[2,3-d]pyrimidin-2-yl)-1-methyl-7-(oxo-lan-3-yloxy)spiro [indole-3,4′-piperidine]-2-one], the pIC50 in assay [1] (setting [4]) and in assay [2] (setting [5]) was > 7.70 throughout. Besides, in assay [3], the GI50 lay within 600 to 1000 nM.
Consider `CN1CCCc2c1nc(N1CCC3(CC1)OC(=O)c1cc(N4CCN(CC(C)(C)O)CC4)cc(F)c13)[nH]c2=O` [Example 439, 4-fluoro-1′-(4-hydroxy-8-methyl-6,7-dihydro-5H-pyrido[2,3-d]pyrimidin-2-yl)-6-[4-(2-hydroxy-2-methyl-propyl)piperazin-1-yl] spiro[2,3-benzofuran-3,4′-piperidine]-1-one], for which the pIC50 in assay [1] (setting [4]) and in assay [2] (setting [5]) was > 7.70 each time. In assay [3], the GI50 fell in the range of 100 to 600 nM.
On to `CN1CCCc2c1nc(N1CCC3(CC1)OC(=O)c1cc(N4CCN(CCO)CC4)cc(F)c13)[nH]c2=O` [Example 440, 4-fluoro-6-[4-(2-hydroxyethyl)piper-azin-1-yl]-1′-(4-hydroxy-8-methyl-6,7-dihydro-5H-pyrido[2,3-d]pyrimi-din-2-yl)spiro[2-benzofuran-3,4′-piperidine]-1-one], for which the pIC50 in assay [1] (setting [4]) and in assay [2] (setting [5]) was > 7.70 in each case. Further, the GI50 in assay [3] lay within 100 to 600 nM.
Turning to `COc1ccc(Cl)c2c1N(CCN1CCN(C(C)=O)CC1)C(=O)C21CCN(c2nc3c(c(=O)[nH]2)CCCN3C)CC1` [Example 441, 1-[2-(4-acetylpiper-azin-1-yl)ethyl]-4-chloro-1′-(4-hy-droxy-8-methyl-6,7-dihydro-5H-py-rido[2,3-d]pyrimi-din-2-yl)-7-methoxy-spiro[indole-3,4′-piperidine]-2-one], the pIC50 in assay [1] (setting [4]) was 6.70 to 7.70; in assay [2] (setting [5]), > 7.70. In addition, the GI50 in assay [3] lay in the range of 100 to 600 nM.
In the case of `CN1CCCc2c1nc(N1CCC3(CC1)C(=O)N(C)c1cc(OCP(=O)(O)O)cc(F)c13)[nH]c2=O` [Example 442, ({[4-fluoro-1-methyl-1′-(8-methyl-4-oxo-3,4,5,6,7,8-hexahydropyrido[2,3-d]pyrimidin-2-yl)-2-oxospiro[indoline-3,4′-piperidine]-6-yl]oxy}methyl) phosphonic Acid], the pIC50 in assay [1] and in assay [2] was 6.70 to 7.70 throughout. In addition, the GI50 in assay [3] lay in the range of 600 to 1000 nM.
